Assay results published in article PMC5698469, “Carrageenan catabolism is encoded by a complex regulon in marine heterotrophic bacteria” (Nature Communications, 2017).

What was measured:
[1] = biological target: T1, ZGAL_4655 (Zobellia galactanivorans, UniProt G0L4M6); test: beta-galactosidase activity on artificial substrate; format: biochemical
T1 construct: gene bgaF
T1 sequence (G0L4M6 18-845): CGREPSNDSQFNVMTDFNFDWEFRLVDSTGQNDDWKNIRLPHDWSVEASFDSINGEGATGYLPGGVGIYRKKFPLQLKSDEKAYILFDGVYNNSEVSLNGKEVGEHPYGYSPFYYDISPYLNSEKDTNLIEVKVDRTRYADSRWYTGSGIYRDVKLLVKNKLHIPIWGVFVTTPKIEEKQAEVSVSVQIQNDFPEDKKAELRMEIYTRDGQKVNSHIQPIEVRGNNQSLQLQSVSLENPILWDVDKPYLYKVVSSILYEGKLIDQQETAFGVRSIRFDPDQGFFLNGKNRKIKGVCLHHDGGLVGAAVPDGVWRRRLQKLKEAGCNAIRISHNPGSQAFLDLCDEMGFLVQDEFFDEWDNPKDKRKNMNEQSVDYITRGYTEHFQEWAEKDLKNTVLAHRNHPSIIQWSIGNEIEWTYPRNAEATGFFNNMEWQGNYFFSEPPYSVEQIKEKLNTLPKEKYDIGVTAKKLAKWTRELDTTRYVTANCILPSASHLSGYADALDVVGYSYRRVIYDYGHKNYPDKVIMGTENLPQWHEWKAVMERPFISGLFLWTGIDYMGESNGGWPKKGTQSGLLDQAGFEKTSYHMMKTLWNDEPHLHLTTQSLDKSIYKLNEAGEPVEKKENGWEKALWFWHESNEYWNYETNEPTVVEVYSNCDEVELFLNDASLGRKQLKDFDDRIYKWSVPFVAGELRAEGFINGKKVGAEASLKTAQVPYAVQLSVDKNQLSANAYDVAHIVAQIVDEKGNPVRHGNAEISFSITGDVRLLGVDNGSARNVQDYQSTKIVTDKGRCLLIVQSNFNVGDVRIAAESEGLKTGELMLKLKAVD

[2] = biological target: T2, ZGAL_3633 (Zobellia galactanivorans, UniProt G0L1N0); test: as above; format: biochemical
T2 construct: gene bgaB
T2 sequence (G0L1N0 21-825): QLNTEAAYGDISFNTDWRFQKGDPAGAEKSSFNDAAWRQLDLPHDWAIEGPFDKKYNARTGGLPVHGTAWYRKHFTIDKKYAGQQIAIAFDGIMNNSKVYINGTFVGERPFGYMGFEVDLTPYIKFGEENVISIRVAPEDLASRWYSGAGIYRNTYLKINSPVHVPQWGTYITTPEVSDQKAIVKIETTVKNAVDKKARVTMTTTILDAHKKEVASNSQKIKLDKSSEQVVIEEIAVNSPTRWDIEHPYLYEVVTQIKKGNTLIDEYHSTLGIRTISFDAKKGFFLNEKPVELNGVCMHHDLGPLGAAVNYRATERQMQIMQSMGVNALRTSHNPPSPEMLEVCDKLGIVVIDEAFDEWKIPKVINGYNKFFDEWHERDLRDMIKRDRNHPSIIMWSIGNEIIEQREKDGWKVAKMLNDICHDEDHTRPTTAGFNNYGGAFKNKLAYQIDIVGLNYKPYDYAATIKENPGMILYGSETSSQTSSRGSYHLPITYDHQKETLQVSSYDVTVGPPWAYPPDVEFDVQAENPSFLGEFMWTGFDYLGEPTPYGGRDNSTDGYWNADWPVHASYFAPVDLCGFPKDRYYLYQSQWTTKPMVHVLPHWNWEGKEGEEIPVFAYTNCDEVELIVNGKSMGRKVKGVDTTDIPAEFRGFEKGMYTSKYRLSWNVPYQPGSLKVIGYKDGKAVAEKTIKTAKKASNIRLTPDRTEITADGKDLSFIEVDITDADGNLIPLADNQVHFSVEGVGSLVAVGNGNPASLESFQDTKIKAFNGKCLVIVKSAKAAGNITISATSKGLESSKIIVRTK

## O=[N+]([O-])c1ccc(O[C@@H]2O[C@H](CO)[C@H](O)[C@H](O)[C@H]2O)cc1 [pNP-beta-D-galactopyranoside]
[1]
  beta-galactosidase activity on artificial substrate: recombinant enzymes displayed beta-galactosidase activity on an artificial substrate (pNP-beta-D-galactopyranoside
[2]
  beta-galactosidase activity on artificial substrate: recombinant enzymes displayed beta-galactosidase activity on an artificial substrate (pNP-beta-D-galactopyranoside
